Broadly, the IC50 is the concentration needed to halve the response being measured. Low readings indicate greater potency in that assay, high ones weaker potency in that assay.

The results in this text go back to patent publication US20260199325A1, “NOVEL SUBSTITUTED PYRAZINE-CARBOXAMIDE-IMIDAZOPYRIDINE DERIVATIVES” (Boehringer Ingelheim International GmbH, priority 2022, published 2026).

Molecules are shown by their SMILES.

T1 sequence (Q14833 33-912): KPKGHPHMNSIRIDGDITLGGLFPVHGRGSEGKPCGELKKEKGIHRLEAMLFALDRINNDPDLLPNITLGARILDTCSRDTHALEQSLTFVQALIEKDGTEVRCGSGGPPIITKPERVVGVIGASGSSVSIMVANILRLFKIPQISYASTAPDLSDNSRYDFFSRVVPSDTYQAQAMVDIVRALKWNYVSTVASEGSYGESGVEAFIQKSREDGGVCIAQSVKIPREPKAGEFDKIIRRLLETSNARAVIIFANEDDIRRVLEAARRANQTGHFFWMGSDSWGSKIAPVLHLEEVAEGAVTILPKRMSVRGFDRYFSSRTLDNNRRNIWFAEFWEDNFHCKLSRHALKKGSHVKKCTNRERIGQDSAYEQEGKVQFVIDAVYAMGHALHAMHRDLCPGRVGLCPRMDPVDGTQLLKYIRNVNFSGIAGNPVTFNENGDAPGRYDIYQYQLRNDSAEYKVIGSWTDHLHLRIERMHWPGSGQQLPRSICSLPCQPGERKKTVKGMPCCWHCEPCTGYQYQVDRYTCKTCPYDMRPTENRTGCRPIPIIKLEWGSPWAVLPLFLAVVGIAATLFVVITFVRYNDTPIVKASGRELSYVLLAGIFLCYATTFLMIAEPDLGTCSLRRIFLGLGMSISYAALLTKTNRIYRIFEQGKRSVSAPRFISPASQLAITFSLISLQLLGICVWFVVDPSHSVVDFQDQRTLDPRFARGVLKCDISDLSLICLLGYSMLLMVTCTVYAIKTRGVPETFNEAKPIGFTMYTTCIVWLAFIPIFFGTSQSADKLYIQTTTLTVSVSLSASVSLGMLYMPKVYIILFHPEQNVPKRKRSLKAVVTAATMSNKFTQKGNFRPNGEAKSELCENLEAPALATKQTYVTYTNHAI

The first experiment addresses T1, human metabotropic Glutamate 4 receptor (Homo sapiens, UniProt Q14833).
T1 construct: expressed in transfected cells; host or cells: HEK293
The experiment can be described thus: In vitro testing of mGluR4 potency (Assay A), cAMP HTRF in HEK293 cells. It is filed as cell-based.
Conditions: not given
Here is the method: A. In Vitro Testing of mGluR4 Potency
The in vitro activity of the compounds according to the invention may be investigated as follows:
The HEK293 cell overexpressing the human metabotropic Glutamate 4 receptor were thawed at 37° C. and immediately diluted with cell culture medium. After centrifugation, the cell pellet is re-suspended in medium and then distributed from a stirred spinner flask into the wells of the assay plate. The plates are incubated for one hour at room temperature before they are incubated for 24 hours at 37° C./5% C02. After washing the cells in the plate three times with 80 uL HBSS/HEPES buffer (10 uL buffer remained in the wells after washing), 5 uL per well of compounds diluted in HBSS/HEPES buffer containing 0.2% BSA (final concentration: 0.1%) and 1 mM IBMX (final concentration: 0.5 mM) are added to the wells of the assay plate. Thereafter 5 uL per well of L-Glutamic acid (final concentration: 10 uM), forskolin (final concentration: 1 uM) and 1 mM IBMX (final concentration: 0.5 mM) dissolved in HBSS/HEPES buffer containing 0.2% BSA (final concentration: 0.1%) are added to the assay plate (final DMSO concentration: 1%). Several wells of the assay plate are used either for the positive and the negative controls or for the cAMP standard curve. The assay plate is incubated for 30 minutes at room temperature. Then 5 ul per well of Anti-cAMP-Antibody-d2 solution and 5 ul per well of cAMP-Europium Cryptate dilution are added to all wells of the plate and the plate is incubated another 60 minutes light protected at room temperature. The emission at 615 nm and 665 nm (Excitation wavelength: 320 nm) are measured on the EnVision™ reader (PerkinElmer). The ratio between the emission at 665 nm and 615 is calculated by the reader. The whole assay is performed in the dark or under green light.
The cAMP standard is prepared by diluting the cAMP stock solution with HBSS/Hepes buffer: 5 μl/well of the cAMP dilutions (in HBSS/Hepes buffer containing 1 mM IBMX and 0.2% BSA-final concentration: 0.5 mM IBMX and 0.1% BSA) are added to 10 ul/well HBSS/Hepes buffer plus 5 ul/well 4% DMSO in HBSS/Hepes containing 0.2% BSA (final DMSO concentration: 1%-like in the wells containing compounds) in the wells of the assay plate. The final cAMP concentrations in the assay plate were: 0, 0.17, 0.69, 2.78, 11.1, 44.5, 178, and 712 nM (two wells/cAMP concentration).
Each assay microtiter plate contained also wells with vehicle controls instead of compound as controls for L-Glutamic acid induced signal (negative control; 100% CTL; 10 uM L-Glutamic acid+1 uM forskolin+0.5 mM IBMX+1% DMSO) and wells with vehicle controls without L-Glutamic acid as controls for non-specific changes in signal (positive control; 0% CTL; 0 uM L-Glutamic acid+1 uM forskolin+0.5 mM IBMX+1% DMSO).
The analysis of the data is performed by the calculation the ratio between the emission at 665 nm and the emission at 615 nm (Em665/Em615 ratio). Thereafter the signals of the compounds are normalized using the positive and negative controls by the following formula:
PoC=100×((Signal Sample−Positive Control)/(Negative Control−Positive Control))
In general terms: TR-FRET usually uses a lanthanide donor and a delayed reading to cut background.
For `Cn1nccc1C(=O)N[C@H](c1nc2ccc(Br)nc2[nH]1)[C@H]1CC[C@H](C)CC1` [Intermediate 213 in WO2019/138017 (regioisomere 2), reference compound], the “activity as mGluR4 modulators in Assay A (in words)” value is listed as “no therapeutically relevant activity”.

Staying with this experiment, now noted: Table 1; HEK293 cell overexpressing human mGluR4; 10 uM L-Glutamic acid, 1 uM forskolin.
In turn, `Cn1nccc1C(=O)N[C@H](c1nc2ccc(Br)nc2[nH]1)[C@H]1CC[C@H](C)CC1` [Intermediate 213 in WO2019/138017 (regioisomere 2), reference compound] had an IC50 of 13.2 µM.

Staying with this experiment, now noted: Table 2; HEK293 cell overexpressing human mGluR4; 10 uM L-Glutamic acid, 1 uM forskolin.
`CCn1c([C@@H](NC(=O)c2cnc(C(F)F)cn2)C2CC2)nc2cc(C(F)(F)F)ncc21` [Example 48, N-[(S)-cyclopropyl[3-ethyl-6-(trifluoromethyl)-3H-imidazo[4,5-c]pyridin-2-yl]methyl]-5-(difluoromethyl)pyrazine-2-carboxamide] yielded an IC50 of 0.048 µM.

As to `CC(C)n1c([C@@H](NC(=O)c2cnc(C(F)F)cn2)C2CCC2)nc2cc(C#N)cnc21` [Example 30, N-[(S)-[6-cyano-3-(propan-2-yl)-3H-imidazo[4,5-b]pyridin-2-yl](cyclobutyl)methyl]-5-(difluoromethyl)pyrazine-2-carboxamide], the IC50 was found to be 0.014 µM. On the same count and under the same terms, then `Cc1cnc(C(=O)N[C@H](c2nc3cnc(C(F)(F)F)cc3n2C(C)C)[C@@H]2COCCO2)cn1` [Example 50, N-[(R)-[(2R)-1,4-dioxan-2-yl][1-(propan-2-yl)-6-(trifluoromethyl)-1H-imidazo[4,5-c]pyridin-2-yl]methyl]-5-methylpyrazine-2-carboxamide], with 0.08 µM. For the compound `Cc1cnc(C(=O)N[C@H](c2nc3ccc(C(F)(F)F)nc3n2C(C)C)C2CC2)cn1` [Example 8, N-[(S)-cyclopropyl[3-(propan-2-yl)-5-(trifluoromethyl)-3H-imidazo[4,5-b]pyridin-2-yl]methyl]-5-methylpyrazine-2-carboxamide], it took 0.003 µM to reach half-maximal inhibition (IC50). For the compound `CCn1c([C@@H](NC(=O)c2cnc(C)cn2)C2CC2)nc2cc(C(F)(F)F)ncc21` [Example 47, N-[(S)-cyclopropyl[3-ethyl-6-(trifluoromethyl)-3H-imidazo[4,5-c]pyridin-2-yl]methyl]-5-methylpyrazine-2-carboxamide], the midpoint of inhibition, the IC50, lay at 0.041 µM. The same measure, in the same setting: then `O=C(N[C@H](c1nc2cc(C(F)(F)F)ncc2n1CC(F)F)C1CC1)c1cnc(C(F)F)cn1` [Example 35, N-[(S)-cyclopropyl[3-(2,2-difluoroethyl)-6-(trifluoromethyl)-3H-imidazo[4,5-c]pyridin-2-yl]methyl]-5-(difluoromethyl)pyrazine-2-carboxamide], with 0.018 µM. As for `Cc1c(C#N)cnc2c1nc([C@@H](NC(=O)c1cnc(C(F)F)cn1)[C@H]1CCCO1)n2C(C)C` [Example 17, N-[(R)-[6-cyano-7-methyl-3-(propan-2-yl)-3H-imidazo[4,5-b]pyridin-2-yl][(2R)-oxolan-2-yl]methyl]-5-(difluoromethyl)pyrazine-2-carboxamide], the IC50 was 0.007 µM. `Cc1cnc(C(=O)N[C@H](c2nc3cc(Cl)cnc3n2C(C)C)[C@H]2CCCO2)cn1` [Example 34, N-[(R)-[6-chloro-3-(propan-2-yl)-3H-imidazo[4,5-b]pyridin-2-yl][(2R)-oxolan-2-yl]methyl]-5-methylpyrazine-2-carboxamide]: the IC50 came out at 0.016 µM.

Compound `Cc1c(C#N)cnc2c1nc([C@@H](NC(=O)c1cnc(C(F)F)cn1)C1(O)CCC1)n2C(C)C` [Example 26, N-[(R)-[6-cyano-7-methyl-3-(propan-2-yl)-3H-imidazo[4,5-b]pyridin-2-yl](1-hydroxycyclobutyl)methyl]-5-(difluoromethyl)pyridazine-2-carboxamide] had an IC50 of 0.013 µM.

The compound `Cc1cnc(C(=O)N[C@@H](C[C@@H]2CCCO2)c2nc3c(C)c(C#N)cnc3n2C(C)C)cn1` [Example 38, N-[(1S)-1-[6-cyano-7-methyl-3-(propan-2-yl)-3H-imidazo[4,5-b]pyridin-2-yl]-2-[(2S)-oxolan-2-yl]ethyl]-5-methylpyrazine-2-carboxamide] yielded an IC50 of 0.019 µM.

`COC(C)(C)[C@H](NC(=O)c1cnc(C)cn1)c1nc2c(C)c(C#N)cnc2n1C(C)C` [Example 2, N-[(IR)-1-[6-cyano-7-methyl-3-(propan-2-yl)-3H-imidazo[4,5-b]pyridin-2-yl]-2-methoxy-2-methylpropyl]-5-methylpyrazine-2-carboxamide] showed an IC50 of 0.002 µM. As for `CO[C@H](C)[C@H](NC(=O)c1cnc(C(F)F)cn1)c1nc2cc(C(F)(F)F)cnc2n1C(C)C` [Example 24, 5-(difluoromethyl)-N-[(1R)-2-methoxy-1-[3-(propan-2-yl)-6-(trifluoromethyl)-3H-imidazo[4,5-b]pyridin-2-yl]propyl]pyrazine-2-carboxamide], it took 0.01 µM to reach half-maximal inhibition (IC50). Consider `Cc1c(C#N)cnc2c1nc([C@@H](NC(=O)c1cnc(C(F)F)cn1)C1CCC1)n2C(C)C` [Example 7, N-[(S)-[6-cyano-7-methyl-3-(propan-2-yl)-3H-imidazo[4,5-b]pyridin-2-yl](cyclobutyl)methyl]-5-(difluoromethyl)pyrazine-2-carboxamide], for which the IC50 came to 0.003 µM. In the case of `CC(C)n1c([C@@H](NC(=O)c2cnc(C(F)F)cn2)C2CC2)nc2cc(F)cnc21` [Example 32, N-[(S)-cyclopropyl[6-fluoro-3-(propan-2-yl)-3H-imidazo[4,5-b]pyridin-2-yl]methyl]-5-(difluoromethyl)pyrazine-2-carboxamide], the IC50 is 0.015 µM. On the same count and under the same terms, with `Cc1cnc(C(=O)N[C@@H](CC2CC2)c2nc3cc(C#N)c(C)nc3n2C(C)C)cn1` [Example 33, N-[(1S)-1-[6-cyano-5-methyl-3-(propan-2-yl)-3H-imidazo[4,5-b]pyridin-2-yl]-2-cyclopropylethyl]-5-methylpyrazine-2-carboxamide] the figure was 0.015 µM. Still for that read-out and setting: with `Cc1cnc(C(=O)N[C@H](c2nc3cc(Cl)cnc3n2C(C)C)C2(O)CCC2)cn1` [Example 25, N-[(R)-[6-chloro-3-(propan-2-yl)-3H-imidazo[4,5-b]pyridin-2-yl](1-hydroxycyclobutyl)methyl]-5-methylpyrazine-2-carboxamide] the figure was 0.012 µM; with `COC(C)(C)[C@H](NC(=O)c1cnc(C)cn1)c1nc2cccnc2n1C(C)C` [Example 37, N-[(1R)-2-methoxy-2-methyl-1-[3-(propan-2-yl)-3H-imidazo[4,5-b]pyridin-2-yl]propyl]-5-methylpyrazine-2-carboxamide], 0.019 µM. `CO[C@@H](C)[C@H](NC(=O)c1cnc(C)cn1)c1nc2cc(Cl)cnc2n1C(C)C` [Example 23, N-[(1R,2S)-1-[6-chloro-3-(propan-2-yl)-3H-imidazo[4,5-b]pyridin-2-yl]-2-methoxypropyl]-5-methylpyrazine-2-carboxamide] had a half-inhibitory concentration (IC50) of 0.01 µM.

In the case of `COC(C)(C)[C@H](NC(=O)c1cnc(C)cn1)c1nc2cc(Cl)cnc2n1C(C)C` [Example 9, N-[(1R)-1-[6-chloro-3-(propan-2-yl)-3H-imidazo[4,5-b]pyridin-2-yl]-2-methoxy-2-methylpropyl]-5-methylpyrazine-2-carboxamide], inhibition was half-maximal at 0.003 µM (IC50).

In turn, `Cc1cnc(C(=O)N[C@H](c2nc3c(C)c(C#N)cnc3n2C(C)C)[C@H]2CCCO2)cn1` [Example 40, N-[(R)-[6-cyano-7-methyl-3-(propan-2-yl)-3H-imidazo[4,5-b]pyridin-2-yl][(2R)-oxolan-2-yl]methyl]-5-methylpyrazine-2-carboxamide] came in with an IC50 of 0.021 µM. `Cc1cnc(C(=O)N[C@@H](CC2CC2)c2nc3cc(C(F)(F)F)cnc3n2C(C)C)cn1` [Example 6, N-[(1S)-2-cyclopropyl-1-[3-(propan-2-yl)-6-(trifluoromethyl)-3H-imidazo[4,5-b]pyridin-2-yl]ethyl]-5-methylpyrazine-2-carboxamide] returned an IC50 of 0.002 µM. Still for that read-out and setting: with `Cc1cnc(C(=O)N[C@H](c2nc3cnc(C(F)(F)F)cc3n2C(C)C)C2CC2)cn1` [Example 43, N-[(S)-cyclopropyl[1-(propan-2-yl)-6-(trifluoromethyl)-1H-imidazo[4,5-c]pyridin-2-yl]methyl]-5-methylpyrazine-2-carboxamide] the figure was 0.024 µM.
